Test results published in patent US20230263822A1, “MODULATION OF FACTOR 11 EXPRESSION” (Ionis Pharmaceuticals, Inc., priority 2008, published 2023).
Strand notation (5' to 3'): a small letter for the sugar, then the base; units joined by * are phosphorothioate-linked, units joined directly phosphodiester-linked; [ ] holds rarer units or linkages, { } end groups; capitals alone tell only the bases. e = 2'-O-(2-methoxyethyl) (MOE); [5mC] = 5-methylcytosine; d = 2'-deoxy (DNA)

Test system: human Factor 11 mRNA
Experiment: Antisense inhibition of human Factor 11 in HepG2 cells by microwalk gapmers, lipofectin, 75 nM (Example 3)
Format: cell-based
Conditions: HepG2, lipofectin, ~24 h, gapmers targeted to nucleobases 656 to 704 of SEQ ID NO: 1
Experimental: These gapmers were designed by creating gapmers shifted slightly upstream and downstream (i.e. “microwalk”) of the original gapmers from Table 3. Gapmers were also created with various motifs, e.g. 5-10-5 MOE, 3-14-3 MOE, and 2-13-5 MOE. These gapmers were tested in vitro. Cultured HepG2 cells at a density of 10,000 cells per well were transfected using lipofectin reagent with 75 nM antisense oligonucleotide. After a treatment period of approximately 24 hours, RNA was isolated from the cells and Factor 11 mRNA levels were measured by quantitative real-time PCR. Factor 11 mRNA levels were adjusted according to total RNA content, as measured by RIBOGREEN. Results are presented as percent inhibition of Factor 11, relative to untreated control cells.
The chimeric antisense oligonucleotides in Table 4 were designed as 5-10-5 MOE, 3-14-3 MOE, and 2-13-5 MOE gapmers. The first listed gapmers in Table 4 are the original gapmers (see Table 3) from which the remaining gapmers were designed via microwalk and are designated by an asterisk. The 5-10-5 gapmers are 20 nucleotides in length, wherein the central gap segment is comprised of 10 2′-deoxynucleotides and is flanked on both sides (in the 5′ and 3′ directions) by wings comprising 5 nucleotides each. The 3-14-3 gapmers are 20 nucleotides in length, wherein the central gap segment is comprised of 14 2′-deoxynucleotides and is flanked on both sides (in the 5′ and 3′ directions) by wings comprising 3 nucleotides each. The 2-13-5 gapmers are 20 nucleotides in length, wherein the central gap segment is comprised of 13 2′-deoxynucleotides. The central gap is flanked on the 5′ end with a wing comprising 2 nucleotides and on the 3′ end with a wing comprising 5 nucleotides. For each of the motifs (5-10-5, 3-14-3, and 2-13-5), each nucleotide in the 5′ wing segment and each nucleotide in the 3′ wing segment has a 2′-MOE modification. The internucleoside linkages throughout each gapmer are phosphorothioate (P=S) linkages. All cytidine residues throughout each gapmer are 5-methyl cytidines. “Target start site” indicates the 5′-most nucleotide to which the gapmer is targeted. “Target stop site” indicates the 3′-most nucleotide to which the gapmer is targeted. Each gapmer listed in Table 4 is targeted to SEQ ID NO: 1 (GENBANK Accession No. NM_000128.3).

Substance | % inhibition
416806 (antisense eA*eA*eA*eT*eG*dT*d[5mC]*dT*dT*dT*dG*dT*dT*dG*d[5mC]*eA*eA*eG*e[5mC]*eG) [compound 416806] | 86%
416807 (antisense eT*eA*eA*eA*eT*dG*dT*d[5mC]*dT*dT*dT*dG*dT*dT*dG*e[5mC]*eA*eA*eG*e[5mC]) [compound 416807] | 51%
416808 (antisense eA*eT*eA*eA*eA*dT*dG*dT*d[5mC]*dT*dT*dT*dG*dT*dT*eG*e[5mC]*eA*eA*eG) [compound 416808] | 55%
416809 (antisense e[5mC]*eA*eT*eA*eA*dA*dT*dG*dT*d[5mC]*dT*dT*dT*dG*dT*eT*eG*e[5mC]*eA*eA) [compound 416809] | 86%
416810 (antisense e[5mC]*eA*e[5mC]*eA*eT*dA*dA*dA*dT*dG*dT*d[5mC]*dT*dT*dT*eG*eT*eT*eG*e[5mC]) [compound 416810] | 68%
416811 (antisense e[5mC]*e[5mC]*eA*e[5mC]*eA*dT*dA*dA*dA*dT*dG*dT*d[5mC]*dT*dT*eT*eG*eT*eT*eG) [compound 416811] | 84%
416812 (antisense eT*e[5mC]*e[5mC]*eA*e[5mC]*dA*dT*dA*dA*dA*dT*dG*dT*d[5mC]*dT*eT*eT*eG*eT*eT) [compound 416812] | 59%
416813 (antisense eG*eT*e[5mC]*e[5mC]*eA*d[5mC]*dA*dT*dA*dA*dA*dT*dG*dT*d[5mC]*eT*eT*eT*eG*eT) [compound 416813] | 70%
416814 (antisense eA*eG*eG*eT*e[5mC]*d[5mC]*dA*d[5mC]*dA*dT*dA*dA*dA*dT*dG*eT*e[5mC]*eT*eT*eT) [compound 416814] | 83%
416815 (antisense eT*eA*eG*eG*eT*d[5mC]*d[5mC]*dA*d[5mC]*dA*dT*dA*dA*dA*dT*eG*eT*e[5mC]*eT*eT) [compound 416815] | 63%
416816 (antisense e[5mC]*eT*eA*eG*eG*dT*d[5mC]*d[5mC]*dA*d[5mC]*dA*dT*dA*dA*dA*eT*eG*eT*e[5mC]*eT) [compound 416816] | 79%
416817 (antisense eT*e[5mC]*eT*eA*eG*dG*dT*d[5mC]*d[5mC]*dA*d[5mC]*dA*dT*dA*dA*eA*eT*eG*eT*e[5mC]) [compound 416817] | 74%
416818 (antisense eT*eG*eT*e[5mC]*eT*dA*dG*dG*dT*d[5mC]*d[5mC]*dA*d[5mC]*dA*dT*eA*eA*eA*eT*eG) [compound 416818] | 76%
416819 (antisense eA*eT*eG*eT*e[5mC]*dT*dA*dG*dG*dT*d[5mC]*d[5mC]*dA*d[5mC]*dA*eT*eA*eA*eA*eT) [compound 416819] | 56%
416820 (antisense e[5mC]*eA*eT*eG*eT*d[5mC]*dT*dA*dG*dG*dT*d[5mC]*d[5mC]*dA*d[5mC]*eA*eT*eA*eA*eA) [compound 416820] | 77%
416821 (antisense eT*e[5mC]*eA*eT*eG*dT*d[5mC]*dT*dA*dG*dG*dT*d[5mC]*d[5mC]*dA*e[5mC]*eA*eT*eA*eA) [compound 416821] | 84%
416822 (antisense e[5mC]*eT*eT*e[5mC]*eA*dT*dG*dT*d[5mC]*dT*dA*dG*dG*dT*d[5mC]*e[5mC]*eA*e[5mC]*eA*eT) [compound 416822] | 76%
416823 (antisense e[5mC]*e[5mC]*eT*eT*e[5mC]*dA*dT*dG*dT*d[5mC]*dT*dA*dG*dG*dT*e[5mC]*e[5mC]*eA*e[5mC]*eA) [compound 416823] | 77%
416824 (antisense e[5mC]*e[5mC]*e[5mC]*eT*eT*d[5mC]*dA*dT*dG*dT*d[5mC]*dT*dA*dG*dG*eT*e[5mC]*e[5mC]*eA*e[5mC]) [compound 416824] | 64%
416828 (antisense eT*eT*eA*eT*eG*d[5mC]*d[5mC]*d[5mC]*dT*dT*d[5mC]*dA*dT*dG*dT*e[5mC]*eT*eA*eG*eG) [compound 416828] | 87%
416829 (antisense eT*eT*eT*eA*eT*dG*d[5mC]*d[5mC]*d[5mC]*dT*dT*d[5mC]*dA*dT*dG*eT*e[5mC]*eT*eA*eG) [compound 416829] | 72%

Same assay, conditions: HepG2 cells, lipofectin, gapmers targeted to nucleobases 738 to 762 of SEQ ID NO: 1

Substance | % inhibition
416830 (antisense eT*e[5mC]*e[5mC]*eG*eT*dG*d[5mC]*dA*dT*d[5mC]*dT*dT*dT*d[5mC]*dT*eT*eG*eG*e[5mC]*eA) [compound 416830] | 81%
416831 (antisense eA*eT*e[5mC]*e[5mC]*eG*dT*dG*d[5mC]*dA*dT*d[5mC]*dT*dT*dT*d[5mC]*eT*eT*eG*eG*e[5mC]) [compound 416831] | 91%
416832 (antisense e[5mC]*eA*eT*e[5mC]*e[5mC]*dG*dT*dG*d[5mC]*dA*dT*d[5mC]*dT*dT*dT*e[5mC]*eT*eT*eG*eG) [compound 416832] | 79%
416833 (antisense eT*e[5mC]*eA*eT*e[5mC]*d[5mC]*dG*dT*dG*d[5mC]*dA*dT*d[5mC]*dT*dT*eT*e[5mC]*eT*eT*eG) [compound 416833] | 65%
416834 (antisense eG*eT*e[5mC]*eA*eT*d[5mC]*d[5mC]*dG*dT*dG*d[5mC]*dA*dT*d[5mC]*dT*eT*eT*e[5mC]*eT*eT) [compound 416834] | 58%

Same assay, conditions: HepG2 cells, lipofectin, gapmers targeted to nucleobases 1018 to 1042 of SEQ ID NO: 1

Substance | % inhibition
416835 (antisense eA*e[5mC]*e[5mC]*eG*eG*dG*dA*dT*dG*dA*dT*dG*dA*dG*dT*eG*e[5mC]*eA*eG*eA) [compound 416835] | 83%
416836 (antisense eA*eA*e[5mC]*e[5mC]*eG*dG*dG*dA*dT*dG*dA*dT*dG*dA*dG*eT*eG*e[5mC]*eA*eG) [compound 416836] | 89%
416837 (antisense e[5mC]*eA*eA*e[5mC]*e[5mC]*dG*dG*dG*dA*dT*dG*dA*dT*dG*dA*eG*eT*eG*e[5mC]*eA) [compound 416837] | 90%

Same assay, conditions: HepG2 cells, lipofectin, gapmers targeted to nucleobases 1062 to 1091 of SEQ ID NO: 1

Substance | % inhibition
416839 (antisense eG*eA*eT*eT*e[5mC]*dT*dT*dT*dG*dG*dG*d[5mC]*d[5mC]*dA*dT*eT*e[5mC]*e[5mC]*eT*eG) [compound 416839] | 89%
416840 (antisense eA*eG*eA*eT*eT*d[5mC]*dT*dT*dT*dG*dG*dG*d[5mC]*d[5mC]*dA*eT*eT*e[5mC]*e[5mC]*eT) [compound 416840] | 85%
416841 (antisense eG*eA*eG*eA*eT*dT*d[5mC]*dT*dT*dT*dG*dG*dG*d[5mC]*d[5mC]*eA*eT*eT*e[5mC]*e[5mC]) [compound 416841] | 87%
416843 (antisense eT*eT*eT*eG*eA*dG*dA*dT*dT*d[5mC]*dT*dT*dT*dG*dG*eG*e[5mC]*e[5mC]*eA*eT) [compound 416843] | 89%
416844 (antisense e[5mC]*eT*eT*eT*eG*dA*dG*dA*dT*dT*d[5mC]*dT*dT*dT*dG*eG*eG*e[5mC]*e[5mC]*eA) [compound 416844] | 90%
416845 (antisense eT*e[5mC]*eT*eT*eT*dG*dA*dG*dA*dT*dT*d[5mC]*dT*dT*dT*eG*eG*eG*e[5mC]*e[5mC]) [compound 416845] | 86%
416846 (antisense eT*eT*e[5mC]*eT*eT*dT*dG*dA*dG*dA*dT*dT*d[5mC]*dT*dT*eT*eG*eG*eG*e[5mC]) [compound 416846] | 72%
